# Reference: patent US10537566B2, “Combinations comprising siponimod and laquinimod for the treatment of multiple sclerosis” (Novartis AG, priority 2014, dated 2020)
# Like-named read-outs stand apart in the source and are kept apart here.
# Columns and labels:
# [1] = test system: experimental autoimmune encephalomyelitis (EAE); test: MOG/CFA/Pertussis toxin-induced EAE, treatment initiated during ongoing CNS damage; type: in vivo, C57Bl/6 mice; conditions: 0.3 mg/kg siponimod, 10 mg/kg laquinimod or both, daily for 21 days after infiltration of immune cells into CNS; p<0.05
# Description: (§1) Female C57Bl/6 mice were subcutaneously immunized with 200 μg recombinant MOG1-125 in CFA followed by one i.p. injection of 100 ng Pertussis toxin. Two days later an additional i.p. injection of 100 ng pertussis toxin was administered. Following infiltration of immune cells into the CNS to initiate tissue damage, the mice were randomized to either vehicle, 0.3 mg/kg siponimod, 10 mg/kg laquinimod or 0.3 mg/kg siponimod+10 mg/kg laquinimod and treated daily with said doses for 21 days.
# [2] = test system: RRMS; conditions: phase III, oral 0.6 mg once daily over 24 months; cited from earlier work
# [3] = test system: lymphocytes; test: Lymphocyte reduction in MOG/CFA/Pertussis toxin-immunized C57/Bl6 mice; type: in vivo, C57Bl/6 mice; conditions: 0.3 mg/kg siponimod, 10 mg/kg laquinimod or both, daily for 29 days, from three days after first clinical symptoms; p<0.05
# Description: as §1, with “Three days after” for “Following infiltration of immune cells into”, “first clinical symptoms,” for “CNS to initiate tissue damage,”, “29” for “21”, “days. The MOG/CFA/Pertussis toxin-induced experimental autoimmune encephalomyelitis model in C57/Bl6 mice is described in Quancard et al (Chem Biol. 19(9):1142-51, 2012).” for “days.”
# [4] = test system: experimental autoimmune encephalomyelitis (EAE); test: MOG/CFA/Pertussis toxin-induced EAE, treatment initiated after severe CNS damage; type: in vivo, C57Bl/6 mice; conditions: 0.3 mg/kg siponimod, 10 mg/kg laquinimod or both, daily for 30 days, from three days after first clinical symptoms; p<0.05
# Description: Female C57Bl/6 mice were subcutaneously immunized with 200 μg recombinant MOG1-125 in CFA followed by one i.p. injection of 100 ng Pertussis toxin. Two days later an additional i.p. injection of 100 ng pertussis toxin was administered. Three days after the first clinical symptoms, the mice were randomized to either vehicle, 0.3 mg/kg siponimod, 10 mg/kg laquinimod or 0.3 mg/kg siponimod+10 mg/kg laquinimod and treated daily with said doses for 30 days. Treatment initiated after severe CNSneurological disease and tissue damage has occurred. More specifically after that a severe CNS damage, which can be characterized by hind limb paralysis, had already occurred.
# [5] = test system: RRMS; conditions: phase II, oral doses of 0.25 mg, 0.5 mg, 1.25 mg, 2 mg and 10 mg; cited from earlier work
# [6] = Level of siponimod in blood, brain and cerebrospinal fluid (CSF) in mice; type: in vivo; conditions: female, mouse, C57Bl/6 mice, mean (SEM)
# Description: Female C57Bl/6 mice were treated daily with 3 mg/kg siponimod, p.o. for 8 days. 8 hours after the last administration, animals were sacrificed and the levels of siponimod were measured in blood, brain and CSF.
# Shown are mean values of 3-5 animals and standard error of the mean (in brackets).
SMILES,daily disease severity / neurological paralysis / disease burden (FIG. 4) [1],efficacy in treating RRMS [2],effect on lymphocytes (FIG. 1) [3],disease burden (cumulative EAE score) (FIG. 2) [4],efficacy in treating RRMS [5],"concentration at 8 h ([6]; CSF, oral, EAE, 3 mg/kg qd, day 8, 8 h, read-out: conc siponimod (nM) (SEM) CSF)","concentration at 8 h ([6]; CSF, po, 3 mg/kg qd p.o., day 8, 8 h after last administration, read-out: conc siponimod (nM) (SEM) CSF)","concentration at 8 h ([6]; blood, oral, EAE, 3 mg/kg qd, day 8, 8 h, read-out: conc siponimod (nM) (SEM) Blood)","concentration at 8 h ([6]; blood, po, 3 mg/kg qd p.o., day 8, 8 h after last administration, read-out: conc siponimod (nM) (SEM) Blood)","concentration at 8 h ([6]; brain, oral, EAE, 3 mg/kg qd, day 8, 8 h, read-out: conc siponimod (nM) (SEM) Brain)","concentration at 8 h ([6]; brain, po, 3 mg/kg qd p.o., day 8, 8 h after last administration, read-out: conc siponimod (nM) (SEM) Brain)"
"CCN(C(=O)c1c(O)c2c(Cl)cccc2n(C)c1=O)c1ccccc1 [laquinimod, 5-chloro-N-ethyl-4-hydroxy-1-methyl-2-oxo-N-phenyl-1,2-dihydroquinoline-3-carboxamide]",did not significantly improve daily disease severity,showed efficacy,did not significantly reduce lymphocytes,did not significantly improve disease burden,,,,,,,
"CCc1cc(/C(C)=N/OCc2ccc(C3CCCCC3)c(C(F)(F)F)c2)ccc1CN1CC(C(=O)O)C1 [siponimod, 1-{4-[1-((E)-4-cyclohexyl-3-trifluoromethyl-benzyloxyimino)-ethyl]-2-ethyl-benzyl}-azetidine-3-carboxylic acid]",transiently reduced neurological paralysis,,reduced lymphocytes,reduced disease burden,dose-dependent efficacy,17.7 nM,7.2 nM,1600 nM,973 nM,9190 nM,5550 nM
